# How the values were obtained:
# AMARE [1] = assay: Pre-emergence herbicidal action against AMARE; assay type: in vivo, Amaranthus retroflexus
# Outline: (§1)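 Greenhouse pots of sandy loam held seeds covered with soil, onto which the compound was applied before emergence. An aqueous suspension or emulsion of WP or EC was used at 600 to 800 l/ha with 0.2% wetting agent. Percent damage was judged visually at 3 weeks.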
# SETVI [2] = assay: Post-emergence herbicidal action against SETVI; assay type: in vivo, Setaria viridis
# Outline: (§2)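 A WP or EC formulation diluted in water with 0.2% wetting agent was sprayed at 600 to 800 l/ha onto one-leaf-stage plants grown in sandy loam. About 3 weeks later, action was rated visually in percent, 100% being dead plants.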
# ABUTH [3] = assay: Post-emergence herbicidal action against ABUTH; assay type: in vivo, Abutilon theophrasti; settings: visual assessment about 3 weeks after treatment vs untreated controls
# Outline: as §2
# VIOTR [4] = assay: Post-emergence herbicidal action against VIOTR; assay type: in vivo, Viola tricolor
# Outline: as §2
# ABUTH [5] = assay: Pre-emergence herbicidal action against ABUTH; assay type: in vivo, Abutilon theophrasti
# Outline: as §1
# PHBPU [6] = assay: Post-emergence herbicidal action against PHBPU; assay type: in vivo, Pharbitis purpurea; settings: dosage 20 g/ha
# Outline: as §2
# MATIN [7] = assay: Post-emergence herbicidal action against MATIN; assay type: in vivo, Matricaria inodora
# Outline: as §2
# DIGSA [8] = assay: Pre-emergence herbicidal action against DIGSA; assay type: in vivo, Digitaria sanguinalis
# Outline: as §1
# ALOMY = assay: Pre-emergence herbicidal action against ALOMY; assay type: in vivo, Alopecurus myosuroides; settings: Alopecurus myosuroides, 504 h; 80 g/ha, pre-emergence, scored visually after 3 weeks vs untreated controls (100% = plants have died, 0% = like control plants)
# Outline: as §1
# POLCO = assay: Pre-emergence herbicidal action against POLCO; assay type: in vivo, Polygonum convolvulus
# Outline: as §1
# ECHCG [9] = assay: Pre-emergence herbicidal action against ECHCG; assay type: in vivo, Echinochloa crus-galli
# Outline: as §1
# PHBPU [10] = assay: Pre-emergence herbicidal action against PHBPU; assay type: in vivo, Pharbitis purpurea; settings: dosage 80 g/ha
# Outline: as §1
# DIGSA [11] = assay: Post-emergence herbicidal action against DIGSA; assay type: in vivo, Digitaria sanguinalis
# Outline: as §2
# ECHCG [12] = assay: Post-emergence herbicidal action against ECHCG; assay type: in vivo, Echinochloa crus-galli
# Outline: as §2
# VERPE [13] = assay: Pre-emergence herbicidal action against VERPE; assay type: in vivo, Veronica persica; settings: dosage 80 g/ha
# Outline: as §1
# AVEFA = assay: Pre-emergence herbicidal action against AVEFA; assay type: in vivo, Avena fatua; settings: Avena fatua, 504 h; 80 g/ha, pre-emergence
# Outline: as §1
# VERPE [14] = assay: Post-emergence herbicidal action against VERPE; assay type: in vivo, Veronica persica
# Outline: as §2
# VIOTR [15] = assay: Pre-emergence herbicidal action against VIOTR; assay type: in vivo, Viola tricolor
# Outline: as §1
# AMARE [16] = assay: Post-emergence herbicidal action against AMARE; assay type: in vivo, Amaranthus retroflexus; settings: 20 g/ha, visual assessment about 3 weeks after treatment, 100% = plants have died, 0% = like control plants
# Outline: as §2
# SETVI [17] = assay: Pre-emergence herbicidal action against SETVI; assay type: in vivo, Setaria viridis; settings: dosage 80 g/ha
# Outline: as §1
# MATIN [18] = assay: Pre-emergence herbicidal action against MATIN; assay type: in vivo, Matricaria inodora
# Outline: as §1
# [19] = Tripleurospermum inodorum, 504 h, dosage 20 g/ha
# [20] = 80 g/ha, scored visually after 3 weeks vs untreated controls (100% = plants have died, 0% = like control plants)
smiles,measurement,setting,value
CCNC(=O)c1c(C(F)F)ccc(C(=O)Nc2nnnn2C)c1CC [Example 1-278],pest or weed control at 20 g/ha,"AMARE [1]; Amaranthus retroflexus, 504 h, 20 g/ha, scored visually after 3 weeks vs untreated controls, 100% = plants have died, 0% = like control plants",100%
same,pest or weed control at 80 g/ha,"AMARE [1]; Amaranthus retroflexus, 504 h, 80 g/ha, scored visually after 3 weeks vs untreated controls, 100% = plants have died, 0% = like control plants",100%
same,pest or weed control at 20 g/ha,"SETVI [2]; Setaria viridis, 504 h, dosage 20 g/ha",90%
same,pest or weed control at 5 g/ha,"ABUTH [3]; Abutilon theophrasti, 504 h, dosage 5 g/ha",80%
same,pest or weed control at 20 g/ha,"ABUTH [3]; Abutilon theophrasti, 504 h, dosage 20 g/ha",90%
same,pest or weed control at 5 g/ha,"VIOTR [4]; Viola tricolor, 504 h, 5 g/ha",90%
same,pest or weed control at 20 g/ha,"VIOTR [4]; Viola tricolor, 504 h, 20 g/ha",90%
same,pest or weed control at 80 g/ha,"ABUTH [5]; Abutilon theophrasti, 504 h, 80 g/ha, scored visually after 3 weeks vs untreated controls (100% = plants have died, 0% = like control plants)",100%
same,pest or weed control at 20 g/ha,"ABUTH [5]; Abutilon theophrasti, 504 h, dosage 20 g/ha, scored visually after 3 weeks vs untreated controls, 100% = plants have died, 0% = like control plants, read-out: Pre-emergence action against ABUTH (herbicidal activity in percent)",90%
same,pest or weed control at 20 g/ha,"PHBPU [6]; Ipomoea purpurea, 504 h",90%
same,pest or weed control at 5 g/ha,"MATIN [7]; Tripleurospermum inodorum, 504 h, dosage 5 g/ha",80%
same,pest or weed control at 20 g/ha,MATIN [7]; [19],90%
same,pest or weed control at 20 g/ha,"DIGSA [8]; Digitaria sanguinalis, 504 h, dosage 20 g/ha",100%
same,pest or weed control at 80 g/ha,"DIGSA [8]; Digitaria sanguinalis, 504 h, dosage 80 g/ha",100%
same,pest or weed control at 80 g/ha,ALOMY,90%
same,pest or weed control at 20 g/ha,"POLCO; Fallopia convolvulus, 504 h, dosage 20 g/ha",90%
same,pest or weed control at 80 g/ha,"POLCO; Fallopia convolvulus, 504 h, dosage 80 g/ha",100%
same,pest or weed control at 20 g/ha,"ECHCG [9]; Echinochloa crus-galli, 504 h, 20 g/ha",90%
same,pest or weed control at 80 g/ha,"ECHCG [9]; Echinochloa crus-galli, 504 h, 80 g/ha",100%
same,pest or weed control at 80 g/ha,"PHBPU [10]; Ipomoea purpurea, 504 h",90%
same,pest or weed control at 5 g/ha,"DIGSA [11]; Digitaria sanguinalis, 504 h, 5 g/ha",90%
same,pest or weed control at 20 g/ha,"DIGSA [11]; Digitaria sanguinalis, 504 h, 20 g/ha",90%
same,pest or weed control at 5 g/ha,"ECHCG [12]; Echinochloa crus-galli, 504 h, dosage 5 g/ha",90%
same,pest or weed control at 20 g/ha,"ECHCG [12]; Echinochloa crus-galli, 504 h, dosage 20 g/ha",90%
same,pest or weed control at 80 g/ha,"VERPE [13]; Veronica persica, 504 h",100%
same,pest or weed control at 80 g/ha,AVEFA,90%
same,pest or weed control at 5 g/ha,"VERPE [14]; Veronica persica, 504 h, 5 g/ha",80%
same,pest or weed control at 20 g/ha,"VERPE [14]; Veronica persica, 504 h, 20 g/ha",90%
same,pest or weed control at 20 g/ha,"VIOTR [15]; Viola tricolor, 504 h, dosage 20 g/ha",100%
same,pest or weed control at 80 g/ha,"VIOTR [15]; Viola tricolor, 504 h, dosage 80 g/ha",100%
same,pest or weed control at 20 g/ha,"AMARE [16]; Amaranthus retroflexus, 504 h",90%
same,pest or weed control at 80 g/ha,"SETVI [17]; Setaria viridis, 504 h",100%
same,pest or weed control at 20 g/ha,MATIN [18]; [19],100%
same,pest or weed control at 80 g/ha,"MATIN [18]; Tripleurospermum inodorum, 504 h, dosage 80 g/ha",100%
CCn1nnnc1NC(=O)c1ccc(C(F)F)c(C(=O)NC2CC2)c1C1CC1 [Example 2-306],Pre-emergence action against AMARE in %,"AMARE [1]; 20 g/ha, scored visually after 3 weeks vs untreated controls, 100% = plants have died, 0% = like control plants",90%
same,Pre-emergence action against AMARE in %,AMARE [1]; [20],100%
same,Post-emergence action against SETVI in %,SETVI [2]; dosage 5 g/ha,80%
same,Post-emergence action against SETVI in %,SETVI [2]; dosage 20 g/ha,80%
same,Post-emergence action against ABUTH in %,ABUTH [3]; dosage 20 g/ha,80%
same,Post-emergence action against VIOTR in %,VIOTR [4]; 5 g/ha,90%
same,Post-emergence action against VIOTR in %,VIOTR [4]; 20 g/ha,90%
same,Pre-emergence action against ABUTH (herbicidal activity),ABUTH [5]; [20],100%
same,Pre-emergence action against ABUTH (herbicidal activity in percent),"ABUTH [5]; dosage 20 g/ha, scored visually after 3 weeks vs untreated controls, 100% = plants have died, 0% = like control plants",100%
same,Post-emergence action against PHBPU in %,PHBPU [6],80%
same,Post-emergence action against MATIN in %,MATIN [7]; dosage 5 g/ha,80%
same,Post-emergence action against MATIN in %,MATIN [7]; dosage 20 g/ha,90%
same,Pre-emergence action against DIGSA in %,DIGSA [8]; dosage 20 g/ha,100%
same,Pre-emergence action against DIGSA in %,DIGSA [8]; dosage 80 g/ha,100%
same,Pre-emergence action against POLCO in %,POLCO; dosage 80 g/ha,80%
same,Pre-emergence action against ECHCG in %,ECHCG [9]; 80 g/ha,100%
same,Pre-emergence action against PHBPU in %,PHBPU [10],100%
same,Post-emergence action against DIGSA in %,DIGSA [11]; 5 g/ha,80%
same,Post-emergence action against DIGSA,DIGSA [11]; 20 g/ha,90%
same,Post-emergence action against ECHCG in %,ECHCG [12]; dosage 5 g/ha,90%
same,Post-emergence action against ECHCG in %,ECHCG [12]; dosage 20 g/ha,90%
same,Pre-emergence action against VERPE in %,VERPE [13],100%
same,Post-emergence action against VERPE in %,VERPE [14]; 20 g/ha,90%
same,Pre-emergence action against VIOTR in %,VIOTR [15]; dosage 20 g/ha,100%
same,Pre-emergence action against VIOTR in %,VIOTR [15]; dosage 80 g/ha,100%
same,Post-emergence action at 20 g/ha against AMARE in %,AMARE [16],90%
same,Pre-emergence action against SETVI in %,SETVI [17],100%
same,Pre-emergence action against MATIN in %,MATIN [18]; dosage 20 g/ha,90%
same,Pre-emergence action against MATIN in %,MATIN [18]; dosage 80 g/ha,100%
